Results taken from patent publication US20220347085A1, “REPELLENT COMPOSITION AND USES” (Université Bourgogne, priority 2019, published 2022).

Tested on: Drosophila suzukii
Test: Anesthesia test, Drosophila suzukii
Type: in vivo
Details: female flies
Procedure: The devices used were similar to the devices for studying the courtship (example 1 above), except for the volume of the space into which the files were introduced, which was 45.24 or 22.62 cm^3. 9 discs of filter paper (Whatman, filter paper 42), each soaked in 10 μl of a composition comprising butyric acid and/or propionic acid and/or a derivative of propionic acid diluted in paraffin oil were deposited in the device. The different compositions used comprised, respectively, 2% propionic acid or 2% butyric acid or 5% ethyl propanoate or 10% ethyl propanoate or 30% ethyl propanoate. For each composition, the number of flies was, respectively, 30 and 24 males, 30 and 11 females for Drosophila melanogaster, and 24, 16 and 4 males, 28, 26, 6, 5 and 4 females for Drosophila suzukii. In order to avoid any contact of the flies with the soaked disks of paper, a gauze (netting) was arranged above said papers. The drosophilae could move freely on said gauze. The quantity of compound, butyric acid or propionic acid, or of ethyl propanoate (odor) volatilized in the behavior chamber was equivalent to that of the device used for the courtship. Likewise, the flies were never in direct contact with the composition (no taste perception), only with the volatile particles (olfactory perception). The flies tested were introduced simultaneously, by group, into the enclosure. Their behavior was filed for 10 minutes, and a time required for leading to anesthesia was calculated over this period, depending on the concentration of butyric acid or propionic acid or ethyl propanoate used. The flies were considered anesthetized when they stopped moving and fell on their side.

CCOC(=O)CC [ethyl propanoate]
time elapsed leading to anesthesia (5% in paraffin oil): approximately 6 minutes | time elapsed leading to anesthesia (10% in paraffin oil): approximately 4 minutes | time elapsed leading to anesthesia (30% in paraffin oil): 2 to 3 min
